Experimental data as given in US5859333A, “Plants and processes for obtaining them” (Zeneca Limited, priority 1992, dated 1999).
Like-named read-outs stand apart in the source and are kept apart here. Values belong to the compound of their own block, whether it stands above or below them. Where no end group is shown, it is not given here.

What was measured:
sweet corn SGP = biological target: T1, sweet corn SGP (Zea mays, UniProt P80607); assay: Self-glucosylating protein (SGP) assay, incorporation of 14C-glucose from UDP-[14C]glucose into TCA-precipitable protein; type: biochemical; conditions: for stimulating effect of divalent cation on sweet corn SGP activity: concentration dependence measured, manganese at 5 mM; for inhibitory effect on activity of sweet corn SGP: result in words
T1 construct: not recombinant
T1 sequence (P80607 whole entry): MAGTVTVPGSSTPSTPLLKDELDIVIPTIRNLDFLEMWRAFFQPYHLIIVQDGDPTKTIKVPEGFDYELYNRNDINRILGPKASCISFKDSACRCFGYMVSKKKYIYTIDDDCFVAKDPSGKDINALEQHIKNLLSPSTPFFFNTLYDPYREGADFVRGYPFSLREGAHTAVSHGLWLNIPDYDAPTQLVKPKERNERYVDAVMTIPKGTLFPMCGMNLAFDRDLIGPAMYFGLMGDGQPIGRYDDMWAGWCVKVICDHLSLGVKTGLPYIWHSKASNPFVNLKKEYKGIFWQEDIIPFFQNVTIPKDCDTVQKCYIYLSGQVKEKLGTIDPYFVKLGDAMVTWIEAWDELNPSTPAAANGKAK
Description: The reaction was stopped by the addition of 1 ml of 10% TCA (trichloroacetic acid). After standing for 10 minutes the sample was passed through a nitrocellulose filter, type HA 0.45 uM, washed with about 3 ml 10% TCA and approximately 10 ml of water and the filter dried under an infrared lamp. Following this, the filter was placed in 4 ml of scintillation liquid (Ecolume) and measured for ^14 C radioactivity in a Searle Delta 300 6890 liquid scintillation counter.
The radioactivity measured on the filter represents ^14 C-glucose that was incorporated into TCA-precipitable material (assuming no conversion to the glucose molecule into any other compound). […] Endogenously glucosylated SGP would not be detectable and could not be quantitated by this method.

Rabbit muscle SGP = biological target: T2, Rabbit muscle SGP (Oryctolagus cuniculus, UniProt P13280); assay: Self-glucosylation activity of rabbit muscle SGP (glycogenin); type: biochemical; conditions: for inhibition of the self-glucosylating protein in rabbit muscle: act as alternative substrates
T2 construct: from tissue; host or cells: rabbit muscle
T2 sequence (P13280 1-333): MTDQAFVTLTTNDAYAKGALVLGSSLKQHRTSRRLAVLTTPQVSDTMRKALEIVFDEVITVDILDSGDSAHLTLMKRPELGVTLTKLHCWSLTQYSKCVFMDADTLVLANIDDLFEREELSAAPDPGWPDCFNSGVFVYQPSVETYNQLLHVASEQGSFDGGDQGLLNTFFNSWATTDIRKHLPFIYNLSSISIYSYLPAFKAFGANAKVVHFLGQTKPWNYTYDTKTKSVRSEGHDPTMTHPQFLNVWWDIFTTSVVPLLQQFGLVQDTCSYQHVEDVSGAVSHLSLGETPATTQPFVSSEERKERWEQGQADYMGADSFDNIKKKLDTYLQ

[1] = test system: proteins of molecular weight higher than SGP; conditions: 16 fold purified extract, 24 hr
[2] = biological target: amylogenin (self-glucosylating protein, SGP) from maize (Zea mays) endosperm (Zea mays) (UniProt P80607)

Compound: [Ca+2] [Calcium]
stimulating effect of divalent cation on sweet corn SGP activity (sweet corn SGP): no stimulatory effect

inhibitory effect on activity of sweet corn SGP (sweet corn SGP): no effect
Compound: O=[N+]([O-])c1ccc(O[C@H]2O[C@H](CO)[C@@H](O)[C@H](O)[C@H]2O)cc1 [p-nitrophenyl-alpha-glucoside]

Compound: N=C(N)NCCC[C@H](N)C(=O)O [arginine]
inhibitory effect on activity of sweet corn SGP (sweet corn SGP): No effect

Compound: O=[N+]([O-])c1ccc(O)cc1 [p-Nitrophenol]
inhibitory effect on activity of sweet corn SGP (sweet corn SGP): no effect

inhibition of the self-glucosylating protein in rabbit muscle (Rabbit muscle SGP; result in words): inhibited
Compound: O=[N+]([O-])c1ccc(OC2O[C@H](CO)[C@@H](O[C@H]3O[C@H](CO)[C@@H](O)[C@H](O)[C@H]3O)[C@H](O)[C@H]2O)cc1 (some centres unmarked) [p-nitro-phenylmaltose]

maximum stimulating effect on sweet corn SGP (sweet corn SGP; at 10 mM concentration): about 50%
Compound: [Mg+2] [magnesium]

inhibitory effect on activity of sweet corn SGP (sweet corn SGP): no effect
Compound: O=[N+]([O-])c1ccc(O[C@@H]2O[C@H](CO)[C@@H](O)[C@H](O)[C@H]2O)cc1 [p-nitrophenyl-beta-glucoside]

inhibitory effect on activity of sweet corn SGP (sweet corn SGP): No effect
Compound: synthetic peptide comprising the same amino acid sequence as the glucosylated tryptic peptide T2: synthetic peptide with the sequence of tryptic peptide T2 (SEQ ID NO: 2, E G A N F V X G Y P F S L R) (EGANFVXGYPFSLR; not fully specified; X: residue not identified in the source)

stimulation of muscle SGP by divalent cation (Rabbit muscle SGP; result in words): stimulated
stimulating effect of divalent cation on sweet corn SGP activity (sweet corn SGP): most potent stimulating effect
Compound: [Cl][Mn][Cl] [Manganese, MnCl2]
effect on radioglucosylation of higher molecular weight proteins ([1]; 1 mM): proceeds
effect on radioglucosylation of higher molecular weight proteins ([1]; 5 mM): inhibited

Compound: Nc1ncnc2c1ncn2[C@@H]1O[C@H](COP(=O)(O)OP(=O)(O)OP(=O)(O)O)[C@@H](O)[C@H]1O [ATP, adenosine triphosphate]
IC50 (Rabbit muscle SGP; read-out: concentration giving 50% inhibition of rabbit muscle SGP): 3500 µM
IC50 (sweet corn SGP): 100 µM
inhibitory effect on activity of sweet corn SGP (sweet corn SGP): potent inhibitor
potency as inhibitor of sweet corn SGP relative to rabbit muscle SGP (sweet corn SGP; sweet corn SGP vs rabbit muscle SGP): 30 fold

inhibition of the self-glucosylating protein in rabbit muscle (Rabbit muscle SGP; result in words): inhibited
Compound: O=[N+]([O-])c1ccc(OC2O[C@H](CO)[C@@H](O[C@H]3O[C@H](CO)[C@@H](O[C@H]4O[C@H](CO)[C@@H](O)[C@H](O)[C@H]4O)[C@H](O)[C@H]3O)[C@H](O)[C@H]2O)cc1 (some centres unmarked) [p-nitrophenylmaltotriose]

Compound: O=C(O)CN(CCN(CC(=O)O)CC(=O)O)CC(=O)O [EDTA, ethylene diamine tetra acetate]
sweet corn SGP activity after treatment with chelator (sweet corn SGP; treated with EDTA): looses all its activity

inhibition of the self-glucosylating protein in rabbit muscle (Rabbit muscle SGP; result in words): inhibited
Compound: O=[N+]([O-])c1ccc(OC2O[C@H](CO)[C@@H](O[C@H]3O[C@H](CO)[C@@H](O[C@H]4O[C@H](CO)[C@@H](O[C@H]5O[C@H](CO)[C@@H](O)[C@H](O)[C@H]5O)[C@H](O)[C@H]4O)[C@H](O)[C@H]3O)[C@H](O)[C@H]2O)cc1 (some centres unmarked) [p-nitrophenyl- maltotetrose]

proteolysis (trypsinolysis) of SGP [2]: 70%
Compound: TPCK-trypsin (enzyme)
